Earlier results in US20190275033A1 (Boehringer Ingelheim International GmbH, priority 2016, published 2019).

Test system: IPF patients
Conditions: cited from earlier work

For Cc1ccc(=O)n(-c2ccccc2)c1 [pirfenidone, 5-methyl-1-phenyl-2(1H)-Pyridinone], the “primary endpoint of change from baseline FVC % predicted” value (ASCEND Phase III trial) is given as “met the primary endpoint”, the “primary FVC lung function endpoint” value (international Phase III CAPACITY program) is given as “efficacy on the primary FVC lung function endpoint in only one of two confirmatory trials” and the “decline of vital capacity” value (two local trials, Japan) is given as “reduced decline”.
